Data on 1 compound can be found in US8937072B2, “Substituted cyanoaniline compounds, preparation and use thereof” (Sinochem Corporation, priority 2011, dated 2015).

Where two headings read alike, the source gives them in different places.

The subject of assay [1] is cucumber gray mold. The assay is described as follows: Activity in vitro (96-well, High Through Put): inhibition rate against cucumber gray mold. In kind it is cell-based. Put shortly:
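Compound in acetone, methanol or DMF was combined with pathogen suspension under sterile conditions and held in a constant-temperature box. After 24 hours germination or growth was scored by eye against an untreated control to give the inhibition rate.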

Assay [2] has as its system corn rust. Kind of assay: Protectant activity in vivo (whole plant) against corn rust. The conditions noted are these: Zea mays, 168 h. A digest of the protocol: (§1)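 Compound stock in organic solvent (≤5% v/v) diluted in water with 0.1% Tween-80 and sprayed onto whole host plants. Fungal inoculation 24 h later; humidity chamber then greenhouse as the pathogen requires. Activity rated visually, usually after 7 days.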

Assay [3] concerns canker of citrus fruit. The conditions noted are these: at 500 ppm; cited from earlier work.
Assay [4] deals with wheat powdery mildew. Kind of assay: Protectant activity in vivo (whole plant) against wheat powdery mildew. The conditions noted are these: Triticum aestivum, 168 h; dose 400 mg/L. Put shortly: as §1
The test system of assay [5] is rice blast. Kind of assay: microbe, parasite or virus in culture. Type of assay: cell-based. The following applies: Pyricularia oryzae.
Assay [6] deals with pear scab. The conditions noted are these: in vivo; cited from earlier work.
For assay [7], the system named is cucumber downy mildew. Kind of assay: Protectant activity in vivo (whole plant) against cucumber downy mildew. The conditions noted are these: Cucumis sativus, 168 h. Put shortly: as §1
The test system of assay [8] is blast of rice. The conditions noted are these: at 500 ppm; cited from earlier work.

`N#Cc1c(F)c(F)c(Nc2ccc(Cl)cc2)c(C#N)c1F` [KC8]: the inhibition at 0.3 µg/mL in assay [1] (0.3 mg/L) and in assay [5] (read-out: the inhibition rate against rice blast (%) 0.3 mg/L) was 0% each time. Besides, in assay [1] (0.9 mg/L, read-out: the inhibition rate against cucumber gray mold (%)), the inhibition at 0.9 µg/mL was 0%. Also, the inhibition at 2.8 µg/mL in assay [1] (2.8 mg/L, read-out: the inhibition rate against cucumber gray mold (%)) is 0%. Further, the inhibition at 8.3 µg/mL in assay [1] (8.3 mg/L, read-out: the inhibition rate against cucumber gray mold (%)) was determined as 0%; in assay [1] (in vitro, dose 8.3 mg/L, read-out: inhibition rate against cucumber gray mold), 0%. This compound yielded a pest or weed control at 6.25 µg/mL in assay [2] (6.25 mg/L) of 0%. The pest or weed control at 25 µg/mL in assay [2] (25 mg/L) was determined as 0%; in assay [7] (25 mg/L, read-out: the protectant activity (%) against cucumber downy mildew), 0%. For the same compound, the pest or weed control at 100 µg/mL in assay [2] (100 mg/L) worked out at 0%; in assay [7] (100 mg/L, read-out: the protectant activity (%) against cucumber downy mildew), 0%. The pest or weed control at 400 µg/mL was found to be 0% in assay [2] (400 mg/L, read-out: the protectant activity (%) against corn rust); 0% in assay [2] (dose 400 mg/L, read-out: protectant activity against corn rust in vivo); 0% in assay [4]; 0% in assay [7] (dose 400 mg/L). Further, the “bacteriostatic diameter against canker of citrus fruit” value in assay [3] is listed as 0 mm. Also, the inhibition at 0.03 µg/mL in assay [5] (read-out: the inhibition rate against rice blast (%) 0.03 mg/L) is 0%. The inhibition at 0.1 µg/mL in assay [5] (read-out: the inhibition rate against rice blast (%) 0.1 mg/L) was 0%. Also, the “control against pear scab” value in assay [6] was 90%. This compound also returned a pest or weed control at 12.5 µg/mL in assay [7] (12.5 mg/L) of 0%. The pest or weed control at 50 µg/mL in assay [7] (50 mg/L, read-out: the protectant activity (%) against cucumber downy mildew) was determined as 0%. Also, in assay [8], the “bacteriostatic diameter against blast of rice” value is recorded as 10.2 mm.
